Publication PMC4039224, “Cadherin-11 in poor prognosis malignancies and rheumatoid arthritis: common target, common therapies” (Oncotarget, 2013)

Legend:
[1] = target: T1, mouse CDH11 (EC1-2 domain) (Mus musculus, UniProt P55288); assay: SPR competition of homophilic CDH11 binding, Biacore T200 CM5; conditions: 6.25-200 uM compound co-injected with 2.5 uM EC1-2; pH 7.4 HEPES, 150 mM NaCl, 3 mM CaCl2, 1% DMSO; inhibits homodimerization, W-binding pocket (modelled); salt form ambiguous (b61 vs Table 1)
T1 construct: extracellular domains EC1-EC2 only; wild-type soluble EC1-2, and C-terminally cysteine-tagged EC1-2 immobilised on the SPR chip; forms homodimer
T1 sequence (P55288 54-268 limits assumed): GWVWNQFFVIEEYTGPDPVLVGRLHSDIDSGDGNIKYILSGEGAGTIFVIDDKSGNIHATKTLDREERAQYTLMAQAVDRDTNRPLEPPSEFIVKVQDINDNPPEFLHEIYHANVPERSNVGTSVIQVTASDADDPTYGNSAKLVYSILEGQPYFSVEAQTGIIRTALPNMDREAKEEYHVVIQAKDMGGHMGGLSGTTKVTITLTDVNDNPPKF

[2] = target: T1, mouse CDH11 (EC1-2 domain); assay: native gel, dimer fraction; format: binding; conditions: 1:1 molar ratio with purified CDH11 EC1-2, compound in DMSO; inhibits homodimerization; species of the gel protein not stated again
[3] = target: wild type mouse cadherin-11 (CDH11) EC1-2 (mouse); assay: native gel or EMSA; purified CDH11 EC1-2 without and with celecoxib (in DMSO, 1:1 molar ratio); monomer and dimer fractions

Compound: Oc1ccc(-c2cccnc2-c2ccccc2)cc1 [Sd-133, 4-(2-phenyl-3-pyridyl)phenol]
- SPR competition of homophilic CDH11 binding, Biacore T200 CM5 [1]: Sd-133 competed with CDH11 (ligand) in binding to immobilized CDH11 protein

Compound: Cc1ccc(-c2cc(C(F)(F)F)nn2-c2ccc(S(N)(=O)=O)cc2)cc1 [celecoxib, 4-[5-(4-methylphenyl)-3-(trifluoromethyl)pyrazol-1-yl]benzenesulfonamide]
- native gel, dimer fraction [2]: Note that celecoxib reduces the dimer fraction

Compound: wild type mouse cadherin-11 (CDH11) EC1-2 (domain or fragment)
- stoichiometry N [3]: 2
